Active and inactive are the calls of the source. No cut-off for these calls is given here.
What was measured:
[1] = Toxicity in C57BL/6 mouse assessed as serum DBIL level at 100 mg/kg, ip measured after 24 hrs (reference value: 7.868 umol/L); type: organism-based; details: in vivo
[2] = molecular target: T1, Microtubule-associated protein 1 light chain 3 beta/Epidermal growth factor receptor (Homo sapiens, UniProt P00533+Q9GZQ8); assay: ATTEC activity at LC3B/EGFR in human HCC827 cells assessed as protein degradation at 1 uM incubated for 18 hrs by global proteomic profiling analysis; type: cell-based
PC-9 [3] = assay: In vivo ATTEC activity at LC3B/EGFR in human PC-9 cells implanted in NOD-SCID mouse assessed as protein degradation at 20 mg/kg, ip measured after 24 hrs by Western blot analysis; type: functional, organism-based
[4] = Half life in Sprague-Dawley rat at 20 mg/kg, po; type: ADME, organism-based; details: in vivo
PC-9 [5] = assay: In vivo ATTEC activity at LC3B/EGFR in human PC-9 cells implanted in NOD-SCID mouse assessed as protein degradation at 10 mg/kg, ip administered every other day for 3 weeks by Western blot analysis; type: functional, organism-based
[6] = Toxicity in C57BL/6 mouse assessed as serum AST level at 100 mg/kg, ip measured after 24 hrs (reference value: 234.682 U/L); type: organism-based; details: in vivo
[7] = Toxicity in C57BL/6 mouse assessed as serum TBIL level at 100 mg/kg, ip measured after 24 hrs (reference value: 18.958 umol/L); type: organism-based; details: in vivo
[8] = molecular target: T1, Microtubule-associated protein 1 light chain 3 beta/Epidermal growth factor receptor; assay: ATTEC activity at LC3B/EGFR in MG132-treated human HCC827 cells assessed as protein degradation at 1 uM incubated for 12 hrs by Western blot analysis; type: cell-based
[9] = Toxicity in C57BL/6 mouse assessed as serum GGT level at 100 mg/kg, ip measured after 24 hrs (reference value: 1.62 U/L); type: organism-based; details: in vivo
[10] = Stability in mouse plasma at 1 mg/ml incubated for 160 mins by HPLC analysis; type: ADME, cell-free; details: read-out: Stability
[11] = Toxicity in C57BL/6 mouse assessed as serum ALT level at 200 mg/kg, ip measured after 24 hrs (reference value: 42.554 U/L); type: organism-based; details: in vivo
[12] = molecular target: T1, Microtubule-associated protein 1 light chain 3 beta/Epidermal growth factor receptor; assay: ATTEC activity at LC3B/EGFR in EBSS-treated human HCC827 cells assessed as protein degradation by Western blot analysis; type: cell-based
[13] = Toxicity in C57BL/6 mouse assessed as histological change in kidney upto 200 mg/kg, ip measured after 24 hrs by H and E staining based analysis; type: organism-based; details: in vivo
[14] = molecular target: T1, Microtubule-associated protein 1 light chain 3 beta/Epidermal growth factor receptor; assay: ATTEC activity at LC3B/EGFR in human HCC827 cells assessed as protein degradation at 1 uM measured after 48 hrs by Western blot analysis; type: cell-based
[15] = Toxicity in C57BL/6 mouse assessed as change in hematological indicators upto 200 mg/kg, ip measured after 24 hrs by blood cell analysis; type: organism-based; details: in vivo
[16] = Toxicity in C57BL/6 mouse assessed as serum TBA level at 200 mg/kg, ip measured after 24 hrs (reference value: 2.674 umol/L); type: organism-based; details: in vivo
NCI-H3255 = assay: Antiproliferative activity against human NCI-H3255 cells incubated for 72 hrs by CCK8 assay; type: functional, cell-based; details: NCI-H3255, 72 h
PC-9 [17] = assay: Antiproliferative activity against human PC-9 cells incubated for 72 hrs by CCK8 assay; type: functional, cell-based; details: PC-9, 72 h
[18] = Toxicity in C57BL/6 mouse assessed as serum ALP level at 100 mg/kg, ip measured after 24 hrs (reference value: 250.654 U/L); type: organism-based; details: in vivo
[19] = molecular target: T1, Microtubule-associated protein 1 light chain 3 beta/Epidermal growth factor receptor; assay: ATTEC activity at LC3B/EGFR in chloroquine-treated human HCC827 cells assessed as protein degradation at 1 uM incubated for 16 hrs by Western blot analysis; type: cell-based
HCC827 [20] = assay: Inhibition of colony formation in human HCC827 cells incubated for 2 weeks by crystal violet staining based analysis; type: functional, cell-based; details: dose 0.1-10 µM
[21] = molecular target: T1, Microtubule-associated protein 1 light chain 3 beta/Epidermal growth factor receptor; assay: ATTEC activity at LC3B/EGFR in Baf-treated human HCC827 cells assessed as protein degradation at 1 uM incubated for 16 hrs by Western blot analysis; type: cell-based
[22] = Toxicity in C57BL/6 mouse assessed as serum DBIL level at 200 mg/kg, ip measured after 24 hrs (reference value: 7.868 umol/L); type: organism-based; details: in vivo
PC-9 [23] = assay: Anti-tumor activity against human PC-9 cells implanted in NOD-SCID mouse at 20 mg/kg, ip administered every other day for 3 weeks relative to control; type: functional; details: PC-9, 504 h, read-out: TGI
[24] = molecular target: T1, Microtubule-associated protein 1 light chain 3 beta/Epidermal growth factor receptor; assay: ATTEC activity at LC3B/EGFR in rapamycin-treated human HCC827 cells assessed as protein degradation by Western blot analysis; type: cell-based
[25] = Toxicity in C57BL/6 mouse assessed as ataxia upto 200 mg/kg, ip measured after 24 hrs; type: organism-based; details: in vivo
[26] = molecular target: T1, Microtubule-associated protein 1 light chain 3 beta/Epidermal growth factor receptor; assay: ATTEC activity at LC3B/EGFR in human NCI-H1975 cells assessed as protein degradation; type: cell-based
[27] = molecular target: T1, Microtubule-associated protein 1 light chain 3 beta/Epidermal growth factor receptor; assay: ATTEC activity at LC3B/EGFR in human PC-9 cells assessed as protein degradation; type: cell-based
A549 = assay: Antiproliferative activity against human A549 cells incubated for 72 hrs by CCK8 assay; type: functional, cell-based; details: A549, 72 h
[28] = Toxicity in C57BL/6 mouse assessed as serum ALP level at 200 mg/kg, ip measured after 24 hrs (reference value: 250.654 U/L); type: organism-based; details: in vivo
[29] = Toxicity in C57BL/6 mouse assessed as serum ALB level at 100 mg/kg, ip measured after 24 hrs (reference value: 40.01 g/L); type: organism-based; details: in vivo
[30] = molecular target: T1, Microtubule-associated protein 1 light chain 3 beta/Epidermal growth factor receptor; assay: ATTEC activity at LC3B/EGFR in CHX-treated human HCC827 cells assessed as protein degradation at 1 uM incubated for 12 hrs by Western blot analysis; type: cell-based
PC-9 [31] = assay: Anti-tumor activity against human PC-9 cells implanted in NOD-SCID mouse at 10 mg/kg, ip administered every other day for 3 weeks relative to control; type: functional; details: PC-9, 504 h, read-out: TGI
[32] = Toxicity in C57BL/6 mouse assessed as lethargy upto 200 mg/kg, ip measured after 24 hrs; type: organism-based; details: in vivo
[33] = molecular target: T1, Microtubule-associated protein 1 light chain 3 beta/Epidermal growth factor receptor; assay: ATTEC activity at LC3B/EGFR in human A549 cells assessed as protein degradation; type: cell-based
[34] = Toxicity in C57BL/6 mouse assessed as serum TBIL level at 200 mg/kg, ip measured after 24 hrs (reference value: 18.958 umol/L); type: organism-based; details: in vivo
[35] = Toxicity in C57BL/6 mouse assessed as serum uric acid level at 200 mg/kg, ip measured after 24 hrs (reference value: 78.784 umol/L); type: organism-based; details: in vivo
PC-9 [36] = assay: Anti-tumor activity against human PC-9 cells implanted in NOD-SCID mouse at 5 mg/kg, ip administered every other day for 3 weeks relative to control; type: functional; details: PC-9, 504 h, read-out: TGI
[37] = Toxicity in C57BL/6 mouse assessed as histological change in liver upto 200 mg/kg, ip measured after 24 hrs by H and E staining based analysis; type: organism-based; details: in vivo
[38] = Toxicity in C57BL/6 mouse assessed as dyspnea upto 200 mg/kg, ip measured after 24 hrs; type: organism-based; details: in vivo
HCC827 [39] = assay: Antiproliferative activity against human HCC827 cells incubated for 72 hrs by CCK8 assay; type: functional, cell-based; details: HCC827, 72 h

Activity [2]: Active
half-life [4]: 18.4 min
Activity [8]: Active
remaining at 2.667 h, 1 mg/ml [10]: 90%
Activity [12]: Active
Activity [14]: Active
IC50 (NCI-H3255): 3000 nM
IC50 (PC-9 [17]): 5610 nM
Activity [19]: inactive
Activity [21]: inactive
Activity [24]: Active
Activity [26]: inactive
Activity [27]: Active
IC50 (A549): > 10000 nM
Activity [30]: inactive
Activity [33]: inactive
IC50 (HCC827 [39]): 278 nM
SMILES: COc1cc2ncnc(Nc3ccc(F)c(Cl)c3)c2cc1OCCOCCOCCOCCNC(=O)COc1c(Br)cc(/C=C2\C(=O)Nc3ccc(I)cc32)cc1Br
Activity [1]: 6.434 µmol/L
Activity (PC-9 [3]): Active
Activity (PC-9 [5]): Active
Activity [6]: 229.632 U/L
Activity [7]: 17.83 µmol/L
Activity [9]: 1.682 U/L
Activity [11]: 43.302 U/L
Activity [13]: Non-Toxic
Activity [15]: Non-Toxic
Activity [16]: 3.062 µmol/L
Activity [18]: 185.73 U/L
inhibition (HCC827 [20]): Dose-Dependent Effect
Activity [22]: 6.434 µmol/L
inhibition in vivo at 20 mg/kg (PC-9 [23]): 63.4%
Activity [25]: Non-Toxic
Activity [28]: 177.394 U/L
Activity [29]: 35.48 g/L
inhibition in vivo at 10 mg/kg (PC-9 [31]): 51.6%
Activity [32]: Non-Toxic
Activity [34]: 16.068 µmol/L
Activity [35]: 49.734 µmol/L
inhibition in vivo at 5 mg/kg (PC-9 [36]): 35%
Activity [37]: Non-Toxic
Activity [38]: Non-Toxic

Reference: ChEMBL document CHEMBL5500346, “Targeting EGFR degradation by autophagosome degraders” (Eur J Med Chem, 2024)
